Reference: patent publication EP2527332A1, “4-Aryl-N-phenyl-1,3,5-triazin-2-amines containing a sulfoximine group as CDK9 inhibitors” (Bayer Intellectual Property GmbH, priority 2011, dated 2012)
Where two headings read alike, the source gives them in different places.

Legend:
HeLa cell = test: Proliferation assay (crystal violet), HeLa; type: cell-based, human; conditions: 4 days incubation, read-out: Inhibition of HeLa cell proliferation IC50
Method: (§1) After 24 hours, the cells of one plate (zero-point plate) were stained with crystal violet (see below), while the medium of the other plates was replaced by fresh culture medium (200 µL), to which the test substances were added in various concentrations (0 µM, as well as in the range of 0.001-10 µM; the final concentration of the solvent dimethyl sulfoxide was 0.5%). The cells were incubated for 4 days in the presence of test substances. Cell proliferation was determined by staining the cells with crystal violet: the cells were fixed by adding 20 µL/measuring point of an 11% glutaric aldehyde solution for 15 minutes at room temperature. After three washing cycles of the fixed cells with water, the plates were dried at room temperature. The cells were stained by adding 100 µL/measuring point of a 0.1% crystal violet solution (pH 3.0). After three washing cycles of the stained cells with water, the plates were dried at room temperature. The dye was dissolved by adding 100 µL/measuring point of a 10% acetic acid solution. […] The change of cell number, in percent, was calculated by normalization of the measured values to the absorbance values of the zero-point plate (=0%) and the absorbance of the untreated (0 µM) cells (=100%). The IC50 values were determined by means of a 4 parameter fit using the company's own software.

HeLa/MaTu/ADR cell = test: Proliferation assay (crystal violet), HeLa/MaTu/ADR; type: cell-based, human; conditions: HeLa/MaTu/ADR (multidrug-resistant), 4 days incubation, read-out: Inhibition of HeLa/MaTu/ADR cell proliferation IC50
Method: as §1

DU145 cell = test: Proliferation assay (crystal violet), DU145; type: cell-based, human; conditions: DU145, 4 days incubation, read-out: Inhibition of DU145 cell proliferation IC50
Method: as §1

B 16F 10 cell = test: Proliferation assay (crystal violet), B16F10; type: cell-based, mouse; conditions: B16F10, 4 days incubation, read-out: Inhibition of B 16F 10 cell proliferation IC50
Method: as §1

[1] = Equilibrium shake flask solubility assay; type: physicochemical; conditions: phosphate buffer pH 6.5, 24 hrs, room temperature; 1440 min
Method: 4. Equilibrium Shake Flask Solubility Assay:
The thermodynamic solubility of compounds in water was determined by an equilibrium shake flask method (see for example: E.H. Kerns, L. Di: Drug-like Properties: Concepts, Structure Design and Methods, 276-286, Burlington, MA, Academic Press, 2008). A saturated solution of the drug was prepared and the solution was mixed for 24 h to ensure that equilibrium was reached. The solution was centrifuged to remove the insoluble fraction and the concentration of the compound in solution was determined using a standard calibration curve.
To prepare the sample, 2 mg solid compound was weighed in a 4 mL glass vial. 1 mL phosphate buffer pH 6.5 was added. The suspension was stirred for 24 hrs at room temperature. The solution was centrifuged afterwards. To prepare the sample for the standard calibration, 2 mg solid sample was dissolved in 30 mL acetonitrile. After sonification the solution was diluted with water to 50 mL.. Sample and standards were quantified by HPLC with UV-detection. For each sample two injection volumes (5 and 50 µl) in triplicates were made. Three injection volumes (5 µl, 10 µl and 20 µl) were made for the standard.
The areas of sample- and standard injections as well as the calculation of the solubility value (in mg/l) were determined by using HPLC software (Waters Empower 2 FR).

H460 cell = test: Proliferation assay (crystal violet), H460; type: cell-based; conditions: Homo sapiens, NCI-H460, 96 h; H460, 4 days incubation; read-out: Inhibition of H460 cell proliferation (activity range) IC50
Method: as §1

CACO-2 cell = test: Proliferation assay (crystal violet), CACO-2; type: cell-based; conditions: Homo sapiens, 96 h; CACO-2, 4 days incubation; read-out: Inhibition of CACO-2 cell proliferation IC50
Method: as §1

Row | IC50 (HeLa cell; Homo sapiens, 96 h) | IC50 (DU145 cell; Homo sapiens, DU-145, 96 h) | IC50 (B 16F 10 cell; Mus musculus, B16-F10, 96 h) | IC50 (HeLa/MaTu/ADR cell; Homo sapiens, 96 h) | IC50 (H460 cell) | IC50 (CACO-2 cell) | SMILES | other results
1 | 400 nM |  |  |  |  |  | CCOC(=O)N=S(C)(=O)Cc1cccc(Nc2ncnc(-c3cc(F)c(F)cc3OC)n2)c1 (racemic) [Compound 9, (rac)-Ethyl [(3-{[4-(4,5-difluoro-2-methoxyphenyl)-1,3,5-triazin-2-yl]amino}benzyl)(methyl)oxido-λ^6-sulfanylidene]carbamate] | 
2 | 1000 nM | 390 nM | 360 nM | 380 nM | 360 nM | 390 nM | CCOC(=O)N=S(C)(=O)Cc1cccc(Nc2ncnc(-c3ccc(F)cc3OC)n2)c1 (racemic) [Compound 1, (rac)-Ethyl [(3-{[4-(4-fluoro-2-methoxyphenyl)-1,3,5-triazin-2-yl]amino}benzyl)(methyl)oxido-λ^6-sulfanylidene]carbamate] | 
3 | 1100 nM |  |  |  |  |  | COc1cc(F)ccc1-c1ncnc(Nc2cccc(CS(C)(=N)=O)c2)n1 (racemic) [Compound 2, (rac)-4-(4-Fluoro-2-methoxyphenyl)-N-{3-[(S-methylsulfonimidoyl)methyl]phenyl}-1,3,5-triazin-2-amine] | 

Second part, the compound before the results:

Row | SMILES | IC50 (HeLa cell; Homo sapiens, 96 h) | IC50 (DU145 cell; Homo sapiens, DU-145, 96 h) | IC50 (B 16F 10 cell; Mus musculus, B16-F10, 96 h) | IC50 (HeLa/MaTu/ADR cell; Homo sapiens, 96 h) | IC50 (H460 cell) | IC50 (CACO-2 cell) | other results
4 | COc1cc(F)ccc1-c1ncnc(Nc2cccc(CS(C)(=N)=O)c2)n1 (single isomer, unassigned; (+)) [Compound 4, (+)-4-(4-Fluoro-2-methoxyphenyl)-N-{3-[(S-methylsulfonimidoyl)methyl]phenyl}-1,3,5-triazin-2-amine] |  |  |  |  |  |  | IC50 (HeLa cell): 970 nM; IC50 (HeLa/MaTu/ADR cell): 440 nM; IC50 (DU145 cell): 670 nM; IC50 (B 16F 10 cell): 1000 nM; Solubilty in mg/l. (thermodynamic solubility in water) [1]: 479 µg/mL
5 | COc1cc(F)ccc1-c1ncnc(Nc2cccc(CS(C)(=N)=O)c2)n1 (single isomer, unassigned; (-)) [Compound 3, (-)-4-(4-Fluoro-2-methoxyphenyl)-N-{3-[(S-methylsulfonimidoyl)methyl]phenyl}-1,3,5-triazin-2-amine] | 1100 nM | 740 nM | 1000 nM |  |  |  | IC50 (HeLa/MaTu/ADR cell; Homo sapiens, HeLa, 96 h): 400 nM
6 | CS(=N)(=O)Cc1cccc(Nc2ncnc(-c3ccc(F)cc3OCc3ccccc3)n2)c1 (racemic) [Compound 6, (rac)-4-[2-(Benzyloxy)-4-fluorophenyl]-N-{3-[(S-methylsulfonimidoyl)methyl]phenyl}-1,3,5-triazin-2-amine] | < 100 nM | 180 nM | 250 nM | 200 nM | 160 nM | 270 nM | 
